The test system of test [1] is human ovarian cancer cells A2780. Kind of test: proliferation inhibitory activity against human ovarian cancer cell A2780 (CellTiter-Glo). The note with it: A2780, 72 h, 1 μM test compound, 3 days of culture, read-out: proliferation inhibitory rate (%) of A2780 cells. It counts as cell-based. Summed up:
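A2780 cells in RPMI-1640 with 10% FBS, compound added the day after seeding and cultured 3 days. Viability by CellTiter-Glo luminescence. Inhibition (%) calculated with cell-free wells as 100% inhibition.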
(ATP-based viability assays read luminescence as a measure of living cells.)

Test [2] concerns human malignant melanoma cell line SKMEL-2. Kind of test: antitumor action on mice transplanted with human malignant melanoma cell line SKMEL-2. The class given is in vivo, mouse. The note with it: once per day, 14 days. The protocol:
An antitumor action of the compound of the present invention on mice transplanted with human malignant melanoma cell line SKMEL-2 and human fibrosarcoma cell line HT-1080 was evaluated by the following method.
Human malignant melanoma cell line SKMEL-2 was subcutaneously transplanted by injection to 7-week-old BALB/cA Jcl-nu/nu female mice (CLEA Japan, Inc.) at 1.0×10^7 cells (G1). At the time point when the tumor volume reached around 800 mm^3 after transplantation, the cells were subcultured and transplanted into 7-week-old BALB/cA Jcl-nu/nu female mouse (CLEA Japan, Inc.) by using trocar (G2). […] At 13 days from transplantation, the tumor diameter of the engrafted tumor was measured and the tumor volume was calculated by the following formula.
Individuals having a tumor volume of 100 to 300 mm^3 were selected for SKMEL-2, and individuals having a tumor volume of 200 to 400 mm^3 were selected for HT-1080, and 4 or 5 mice per group were used for the experiment. […] The tumor diameter was measured one day before the start of administration and one day after completion of administration and the tumor volume was calculated.
The tumor proliferation rate (T/C (%)) of the test compound administration group in comparison with the control administration group was calculated by the following formula. […]

`Cc1cc(N2CC[C@@](C#N)(C3CC3)C2=O)cc(C(=O)NCc2cc(F)cc(-c3cnn(C)c3)c2)n1` [Example 159, 4-((3S)-3-cyano-3-cyclopropyl-2-oxopyrrolidin-1-yl)-N-(3-fluoro-5-(1-methyl-1H-pyrazol-4-yl)benzyl)-6-methylpyridine-2-carboxamide]: in test [1], the inhibition at 1 µM was 96%. Also, the “T/C (%) tumor proliferation rate” value in test [2] (SKMEL-2, 5 mg/kg orally) came to 64%; in test [2] (SKMEL-2, 10 mg/kg orally), 7.7%.

These data come from patent US10774083B2, “Heterocyclic amide compound” (TAKEDA PHARMACEUTICAL COMPANY LIMITED, priority 2016, dated 2020).
